Experimental data published in patent publication US20120202799A1, “Condensed Azepine Derivatives As Bromodomain Inhibitors” (priority 2009, published 2012).

Columns and labels:
[1] = tested on: TNFα levels in LPS stimulated whole blood; test: LPS Stimulated Whole Blood Measuring TNFα Levels Assay; type: cell-based; conditions: LPS final concentration 200 ng/ml, 24 hours at 37 degrees, TNFα by immunoassay, read-out: pIC50 (TNFα levels) (converted)
Procedure: Activation of monocytic cells by agonists of toll-like receptors such as bacterial lipopolysaccharide (LPS) results in production of key inflammatory mediators including TNFα. Such pathways are widely considered to be central to the pathophysiology of a range of auto-immune and inflammatory disorders.
Compounds to be tested are diluted to give a range of appropriate concentrations and 1 ul of the dilution stocks is added to wells of a 96 plate. Following addition of whole blood (130 μl) the plates are incubated at 37 degrees (5% CO2) for 30 min before the addition of 10 ul of 2.8 ug/ml LPS, diluted in complete RPMI 1640 (final concentration=200 ng/ml), to give a total volume of 140 μl per well. After further incubation for 24 hours at 37 degrees, 140 μl of PBS are added to each well. The plates are sealed, shaken for 10 minutes and then centrifuged (2500 rpm×10 min). 100 μl of the supernatant are removed and TNFα levels assayed by immunoassay (typically by MesoScale Discovery technology) either immediately or following storage at −20 degrees. Dose response curves for each compound was generated from the data and an IC50 value was calculated.

[2] = molecular target: T1, Bromodomain 2, 3 and 4 (BRD2, BRD3 and BRD4); test: Fluorescence Anisotropy Binding Assay; design: species or system Human; conditions: result stated for one or more of BRD2, BRD3 and BRD4, target not specified per compound
T1 construct: fused on or other part: six-His tag at the N-terminus
Procedure: All data was normalized to the mean of 16 high and 16 low control wells on each plate. A four parameter curve fit of the following form was then applied:
y=a+((b−a)/(1+(10̂x/10̂c)̂d)
The His-tagged Bromodomain was extracted from E. coli cells using 0.1 mg/ml lysozyme and sonication. […] Further purification was completed by Superdex 200 prep grade size exclusion column. Purified protein was stored at −80 C in 20 mM HEPES pH 7.5 and 100 mM NaCl.

Row | melting point | Compound | IC50 [1] | pIC50 in one or more of the BRD2, BRD3 and BRD4 assays [2]
1 | 160 to 170 °C | Cc1nnc2n1-c1ccc(Br)cc1C(c1ccccc1F)=NC2NC(=O)OCc1ccccc1 (centres unmarked) [Example 17, phenylmethyl [8-bromo-6-(2-fluorophenyl)-1-methyl-4H-[1,2,4]triazolo[4,3-a][1,4]benzodiazepin-4-yl]carbamate] | – | –
2 | > 260 °C | Cc1nnc2n1-c1ccccc1C(c1ccccc1)=NC2NC(=O)Nc1ccccc1 (centres unmarked) [Example 70, N-(1-methyl-6-phenyl-4H-[1,2,4]triazolo[4,3-a][1,4]benzodiazepin-4-yl)-N′-phenyl urea] | – | –
3 | 225 °C | COc1ccc(C2=NC(NC(=O)Nc3ccc(C(=O)c4ccccc4)cc3)c3nnc(C)n3-c3ccccc32)cc1 (centres unmarked) | – | –
4 | – | Cc1nnc2n1-c1ccccc1C(c1ccccc1)=NC2NC(=O)OCc1ccccc1 (single isomer, unassigned; (+)) [Example 27, (+)-phenylmethyl (1-methyl-6-phenyl-4H-[1,2,4]triazolo[4,3-a][1,4]benzodiazepin-4-yl)carbamate] | ≤ 10 µM | –
5 | – | Cc1nnc2n1-c1ccccc1C(c1ccccc1)=NC2NC(=O)/C=C/c1ccc(F)cc1 (centres unmarked) [Example 65, (2E)-3-(4-fluorophenyl)-N-(1-methyl-6-phenyl-4H-[1,2,4]triazolo[4,3-a][1,4]benzodiazepin-4-yl)-2-propenamide] | ≤ 10 µM | –
6 | – | Cc1nnc2n1-c1ccccc1C(c1ccccc1)=NC2NC(=O)OCc1ccco1 (centres unmarked) [Example 44, 2-furanylmethyl (1-methyl-6-phenyl-4H-[1,2,4]triazolo[4,3-a][1,4]benzodiazepin-4-yl)carbamate] | – | ≥ 5.0
7 | – | Cc1nnc2n1-c1ccccc1C(c1ccccc1)=NC2NC(=O)/C=C/c1ccccc1 (centres unmarked) [Example 64, (2E)-N-(1-methyl-6-phenyl-4H-[1,2,4]triazolo[4,3-a][1,4]benzodiazepin-4-yl)-3-phenyl-2-propenamide] | ≤ 10 µM | –
8 | – | CCOC(=O)NC1N=C(c2ccc(Cl)cc2)c2ccccc2-n2c(C)nnc21 (single isomer, unassigned; (+)) [Example 28, (+)-ethyl [6-(4-chlorophenyl)-1-methyl-4H-[1,2,4]triazolo[4,3-a][1,4]benzodiazepin-4-yl]carbamate] | ≤ 10 µM | –
9 | – | CCOC(=O)NC1N=C(c2ccccc2)c2ccccc2-n2c(C)nnc21 (single isomer, unassigned; (+)) [Example 32, (+)-ethyl 1-methyl-6-phenyl-4H-[1,2,4]triazolo[4,3-a][1,4]benzodiazepin-4-ylcarbamate] | ≤ 10 µM | –

Row | Compound | melting point | IC50 [1] | pIC50 in one or more of the BRD2, BRD3 and BRD4 assays [2]
10 | COc1ccc2cc(C(=O)NC3N=C(c4ccccc4)c4ccccc4-n4c(C)nnc43)[nH]c2c1 (centres unmarked) [Example 53, 6-(methyloxy)-N-(1-methyl-6-phenyl-4H-[1,2,4]-triazolo[4,3-a][1,4]benzodiazepin-4-yl)-1H-indole-2-carboxamide] | 160 to 170 °C | ≤ 10 µM | –
